Here are results for three molecules from patent US4740233A, “Substituted 1,2,4-triazolo[1,5-a]-pyrimidine-2-sulfonamides and compositions and methods of controlling undesired vegetation and suppressing the nitrification of ammonium nitrogen in soil” (The Dow Chemical Company, priority 1986, dated 1988).

Assay [1] deals with cotton. Description: Preemergent control of plant species. The class given is in vivo, Gossypium spp. The following applies: Gossypium hirsutum, pre-emergence, 336 h; 0.25 lb/acre; read-out: percent preemergent control. Summed up: (§1)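 Seeds sown in agricultural soil in greenhouse beds, then aqueous-emulsion compositions applied uniformly to the bed surface at listed rates. Beds kept two weeks under greenhouse growth conditions with watering. Control expressed as growth reduction versus water-treated beds of the same species.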

In assay [2] the test system is rape. The assay can be described thus: Preemergent control of plant species. The class given is in vivo, Brassica napus. Conditions: Brassica napus, pre-emergence, 336 h; 0.25 lb/acre; read-out: percent preemergent control. Summed up: as §1
Assay [3] relates to soybean. The assay can be described thus: Preemergent control of plant species. The class given is in vivo, Glycine max. Conditions: Glycine max, pre-emergence, 336 h; 0.25 lb/acre; read-out: percent preemergent control. Summed up: as §1
Assay [4] concerns sugar beet. The assay can be described thus: Preemergent control of plant species. The class given is in vivo, Beta saccharifera. Conditions: Beta vulgaris, pre-emergence, 336 h; 0.25 lb/acre; read-out: percent preemergent control. Summed up: as §1
Assay [5] deals with jimsonweed. The assay can be described thus: Preemergent control of plant species. The class given is in vivo, Datura stramonium. Conditions: Datura stramonium, pre-emergence, 336 h; 0.25 lb/acre; read-out: percent preemergent control. Summed up: as §1
Assay [6] concerns annual morning glory. The assay can be described thus: Preemergent control of plant species. The class given is in vivo, Ipomoea spp. Conditions: Ipomoea, pre-emergence, 336 h; 0.25 lb/acre; read-out: percent preemergent control. Summed up:
as §1

The subject of assay [7] is velvetleaf. The assay can be described thus: Preemergent control of plant species. The class given is in vivo, Abutilon theophrasti. Conditions: Abutilon theophrasti, pre-emergence, 336 h; 0.25 lb/acre; read-out: percent preemergent control. Summed up: as §1
In assay [8] the test system is corn. Description: Preemergent control of plant species. The class given is in vivo, Zea mays. The following applies: Zea mays, pre-emergence, 336 h; 0.25 lb/acre; read-out: percent preemergent control. Summed up: as §1
In assay [9] the test system is rice. Description: Preemergent control of plant species. The class given is in vivo, Oryza sativa. Conditions: Oryza sativa, pre-emergence, 336 h; 0.25 lb/acre; read-out: percent preemergent control. Summed up:
as §1

For assay [10], the system named is wheat. Description: Preemergent control of plant species. The class given is in vivo, Triticum aestivum. Conditions: Triticum aestivum, pre-emergence, 336 h; 0.25 lb/acre; read-out: percent preemergent control. Summed up: as §1
The subject of assay [11] is barnyardgrass. Description: Preemergent control of plant species. Conditions: Echinochloa crus-galli, pre-emergence, 336 h; 0.25 lb/acre; read-out: percent preemergent control. The class given is in vivo, Echinochloa crusgalli. Summed up:
as §1

For assay [12], the system named is johnson grass. The assay can be described thus: Preemergent control of plant species. The class given is in vivo, Sorghum halepense. Conditions: Sorghum halepense, pre-emergence, 336 h; 0.25 lb/acre; read-out: percent preemergent control. Summed up:
as §1

In assay [13] the test system is wild oats. The assay can be described thus: Preemergent control of plant species. The class given is in vivo. The following applies: Avena fatua, pre-emergence, 336 h; 0.25 lb/acre; read-out: percent preemergent control. Summed up: as §1
The test system of assay [14] is yellow foxtail. The assay can be described thus: Preemergent control of plant species. The class given is in vivo, Setaria lutescens. The following applies: Setaria, pre-emergence, 336 h; 0.25 lb/acre; read-out: percent preemergent control. Summed up:
as §1

In assay [15] the test system is yellow nutsedge. The assay can be described thus: Preemergent control of plant species. The class given is in vivo, Cyperus esculentus. Conditions: Cyperus, pre-emergence, 336 h; 0.25 lb/acre; read-out: percent preemergent control. Summed up: as §1
For assay [16], the system named is nitrification of ammonium nitrogen. Description: Suppression of nitrification of ammonium nitrogen in soil. The following applies: 27° C. Summed up:
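Soil (20 g) moistened to its 1/3 bar tension value, mixed with test chemical and incubated sealed for two weeks at 27° C. Nitrate extracted with ammonium sulfate solution and measured by nitrate-specific ion electrode; value given as % NH4-N remaining.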

In assay [17] the test system is annual sugar beet variety (SLC03). The assay can be described thus: Plant growth regulator activity, postemergence. The class given is in vivo. Conditions: for minimal effective concentration: Beta vulgaris, post-emergence, 672 h, 4 weeks after spraying, read-out: Bolting Inhibition (postemergence), concentration with observed effect. From the text:
Using a regular biennial variety, even a bolting-susceptible variety would require a cold treatment of around 10-16 weeks plus a hormone treatement in conjunction with specific light intensities. Thus, for a screening organism, we selected one which would consistently produce bolting on a regular schedule. The screen is run with an annual sugar beet variety (SLC03) provided by Dr. Richard J. Hecker, Fort Collins, Colo. This variety is an inbred which bolts in the 6- to 8-leaf stage without any need for vernalization. This allows the screen to be run entirely in the greenhouse with all 110 chemical compounds tested on one tray. The sugarbeets are grown in 3×3 inch square pots in a greenhouse sandy loam potting mix. The sugarbeets are sprayed with test compounds when they are 2 to 3 weeks old (2 true leaves). The compounds are dissolved in acetone and diluted with water containing Tween 20 as a wetting agent. The concentration of acetone in the final spray is 20% and the concentration of Tween 20 is 0.05 percent. The plants are examined for the appearance of a bolt 4 weeks after spraying.

Assay [18] relates to cotton. The assay can be described thus: Postemergent control of plant species. The class given is in vivo, Gossypium spp. The following applies: Gossypium hirsutum, post-emergence, 336 h, read-out: percent postemergent control. Summed up:
(§2)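 Compounds in acetone mixed 1:1 with water containing 0.1% surfactant, sprayed postemergence on greenhouse plants at the 2-4 leaf stage. Growth reduction versus untreated plants of the same species scored after about two weeks.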

Assay [19] has as its system rape. The assay can be described thus: Postemergent control of plant species. The class given is in vivo, Brassica napus. The following applies: Brassica napus, post-emergence, 336 h, read-out: percent postemergent control. Summed up:
as §2

Assay [20] relates to soybean. Description: Postemergent control of plant species. The class given is in vivo, Glycine max. Conditions: Glycine max, post-emergence, 336 h, read-out: percent postemergent control. Summed up: as §2
The test system of assay [21] is sugar beet. Description: Postemergent control of plant species. The class given is in vivo, Beta saccharifera. Conditions: Beta vulgaris, post-emergence, 336 h, read-out: percent postemergent control. Summed up: as §2
Assay [22] has as its system jimsonweed. The assay can be described thus: Postemergent control of plant species. The following applies: Datura stramonium, post-emergence, 336 h, read-out: percent postemergent control. The class given is in vivo, Datura stramonium. Summed up: as §2
In assay [23] the test system is annual morning glory. The assay can be described thus: Postemergent control of plant species. The class given is in vivo, Ipomoea spp. The following applies: Ipomoea, post-emergence, 336 h, read-out: percent postemergent control. Summed up:
as §2

Another assay concerns pigweed. Description: Postemergent control of plant species. The class given is in vivo, Amaranthus spp. The following applies: Amaranthus retroflexus, post-emergence, 336 h, read-out: percent postemergent control. Summed up: as §2
Assay [24] relates to velvetleaf. The assay can be described thus: Postemergent control of plant species. The class given is in vivo, Abutilon theophrasti. The following applies: Abutilon theophrasti, post-emergence, 336 h, read-out: percent postemergent control. Summed up:
as §2

Assay [25] deals with corn. The assay can be described thus: Postemergent control of plant species. The class given is in vivo, Zea mays. The following applies: Zea mays, post-emergence, 336 h, read-out: percent postemergent control. Summed up: as §2
Assay [26] has as its system rice. Description: Postemergent control of plant species. Conditions: Oryza sativa, post-emergence, 336 h, read-out: percent postemergent control. The class given is in vivo, Oryza sativa. Summed up: as §2
For assay [27], the system named is sorghum. Description: Postemergent control of plant species. The class given is in vivo, Sorghum vulgare. Conditions: Sorghum, post-emergence, 336 h, read-out: percent postemergent control. Summed up:
as §2

Assay [28] relates to wheat. Description: Postemergent control of plant species. The class given is in vivo, Triticum aestivum. The following applies: Triticum aestivum, post-emergence, 336 h, read-out: percent postemergent control. Summed up: as §2
Assay [29] deals with barnyardgrass. The assay can be described thus: Postemergent control of plant species. The following applies: Echinochloa crus-galli, post-emergence, 336 h, read-out: percent postemergent control. The class given is in vivo, Echinochloa crusgalli. Summed up: as §2
A further assay concerns crabgrass. The assay can be described thus: Postemergent control of plant species. The class given is in vivo, Digitaria spp. The following applies: Digitaria sanguinalis, post-emergence, 336 h, read-out: percent postemergent control. Summed up: as §2
The subject of assay [30] is yellow foxtail. Description: Postemergent control of plant species. The class given is in vivo, Setaria lutescens. The following applies: Setaria, post-emergence, 336 h, read-out: percent postemergent control. Summed up:
as §2

The test system of assay [31] is johnson grass. Description: Postemergent control of plant species. The class given is in vivo, Sorghum halepense. Conditions: Sorghum halepense, post-emergence, 336 h, read-out: percent postemergent control. Summed up: as §2
The subject of assay [32] is wild oats. The assay can be described thus: Postemergent control of plant species. The class given is in vivo, Avena fatua. Conditions: Avena fatua, post-emergence, 336 h, read-out: percent postemergent control. Summed up:
as §2

For assay [33], the system named is yellow nutsedge. The assay can be described thus: Postemergent control of plant species. Conditions: Cyperus, post-emergence, 336 h, read-out: percent postemergent control. The class given is in vivo, Cyperus esculentus. Summed up: as §2
For assay [34], the system named is sorghum. The assay can be described thus: Preemergent control of plant species. The following applies: Sorghum, pre-emergence, 336 h; 0.25 lb/acre; read-out: percent preemergent control. The class given is in vivo, Sorghum vulgare. Summed up:
as §1

SMILES strings stand for the structures.

With `Cc1cc(C)n2nc(S(=O)(=O)Nc3c(C)ccc(Cl)c3C)nc2n1` [Compound 65], the plant injury at 280.212 g/ha is 0% with cotton [1]; 20% with rape [2]; 100% in the assay on soybean [3]; 100% in the assay on sugar beet [4]; 0% in the assay on corn [8]; 30% in the assay on rice [9]. For the same molecule, the plant injury at 280.212 g/ha in the assay with wheat [10] stood at 0%. The pest or weed control at 280.212 g/ha in the assay on jimsonweed [5] came to 90%; in the assay with annual morning glory [6] it was 50%; in the assay with velvetleaf [7], 20%; in the assay with barnyardgrass [11], 70%; with johnson grass [12], 95%; in the assay with wild oats [13], 0%. Also, the pest or weed control at 280.212 g/ha in the assay with yellow foxtail [14] and in the assay with yellow nutsedge [15] was 95% each time. Moreover, the “% NH4-N Remaining After 2 Weeks Incubation” value in [16] (0.06 ppm) was found to be 5%; in assay [16] (0.25 ppm), 52%; in assay [16] (1 ppm), 65%; in [16] (4 ppm) it was 85%. Further, in assay [17], the minimal effective concentration came out at 12 µg/mL.

Consider `COC(=O)c1cccc(C)c1N(Cc1ccccc1)S(=O)(=O)c1nc2nc(C)cc(C)n2n1` [Compound 267], for which the plant injury at 500 ppm with cotton [18] is 0%; with rape [19] it was 80%; in the assay with soybean [20], 45%; with sugar beet [21], 80%; with corn [25] it was 0%; in the assay on rice [26], 40%. The plant injury at 500 ppm in the assay with sorghum [27] turned out to be 65%; in the assay with wheat [28], 0%. For the same molecule, the pest or weed control at 500 ppm amounted to 80% in the assay on jimsonweed [22]; 90% with annual morning glory [23]; 60% in the assay with pigweed; 95% in the assay on velvetleaf [24]; 35% in the assay on barnyardgrass [29]; 90% in the assay on crabgrass. The pest or weed control at 500 ppm stood at 70% in the assay with yellow foxtail [30], 75% with johnson grass [31], 0% in the assay with wild oats [32] and 40% in the assay on yellow nutsedge [33]. For the same molecule, the “% NH4-N Remaining After 2 Weeks Incubation” value is 0% in [16] (0.06 ppm), 0% in assay [16] (0.25 ppm), 0% in assay [16] (1 ppm) and 11% in assay [16] (4 ppm). Also, the “observed effect (postemergence)” value in assay [17] (400 ppm) is “stunting”. The minimal effective concentration in [17] came to 400 µg/mL.

Turning to `CC(C)c1ccn2nc(S(=O)(=O)Nc3c(Cl)cccc3Cl)nc2n1` [Compound 204], the plant injury at 280.212 g/ha is 80% in the assay on cotton [1]; 40% in the assay with rape [2]; 0% in the assay with soybean [3]; 90% with sugar beet [4]; 40% in the assay on corn [8]; 0% with rice [9]. Further, the plant injury at 280.212 g/ha in the assay with sorghum [34] was 60%; in the assay with wheat [10], 0%. The pest or weed control at 280.212 g/ha in the assay with annual morning glory [6], with velvetleaf [7], in the assay on barnyardgrass [11], with johnson grass [12], in the assay with wild oats [13] and with yellow foxtail [14] was 0% in each case. Also, the pest or weed control at 280.212 g/ha with yellow nutsedge [15] worked out at 0%. Also, the “% NH4-N Remaining After 2 Weeks Incubation” value in assay [16] (0.6 ppm) amounted to 0%; in assay [16] (1.25 ppm), 0%; in [16] (2.5 ppm) it was 34%; in assay [16] (5 ppm), 56%; in assay [16] (10 ppm), 66%. In addition, in [17], the minimal effective concentration came out at 400 µg/mL.
